Values of other authors as cited in patent publication US10156556B2, “Method for determining ecological risks of polycyclic aromatic hydrocarbon in water body” (priority 2013, dated 2018).

Conditions: relative to benzoapyrene; Nisbet and Lagoy 1992; cited from earlier work

c1ccc2c(c1)-c1cccc3cccc-2c13 [Flu]
Toxic equivalency factor: 0.001
